Experimental data taken from patent publication US20260092074A1, “Annelated Pyridines as Steroidogenesis Inhibitors, Preparation Method and Use Thereof” (Guangzhou Vinnocent Pharmaceutical Limited, priority 2022, published 2026).

Tests used:
human CYP11B1 = target: T1, human CYP11B1 (Homo sapiens, UniProt P15538); experiment: Inhibition of hCYP11B1 in transfected V79 cells; assay type: cell-based; settings: hamster V79 cells expressing human CYP11B1; substrate 11-deoxycortisol 200 nM
T1 construct: expressed in transfected cells
T1 sequence (P15538 25-503): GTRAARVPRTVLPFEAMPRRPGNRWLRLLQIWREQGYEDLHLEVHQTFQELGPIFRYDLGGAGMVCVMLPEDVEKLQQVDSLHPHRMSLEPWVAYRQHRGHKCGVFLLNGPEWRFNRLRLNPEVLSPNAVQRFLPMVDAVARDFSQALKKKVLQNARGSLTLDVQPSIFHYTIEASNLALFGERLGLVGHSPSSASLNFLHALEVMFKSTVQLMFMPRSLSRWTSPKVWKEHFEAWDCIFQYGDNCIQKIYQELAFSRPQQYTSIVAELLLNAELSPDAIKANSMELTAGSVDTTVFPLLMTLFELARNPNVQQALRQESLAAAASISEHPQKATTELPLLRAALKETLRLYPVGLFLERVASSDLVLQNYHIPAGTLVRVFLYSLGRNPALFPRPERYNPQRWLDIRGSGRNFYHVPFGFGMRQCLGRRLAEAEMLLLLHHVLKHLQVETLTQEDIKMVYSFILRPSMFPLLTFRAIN
Method in brief: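 Reactions started with 200 nM 11-deoxycortisol, ran for 30 min and were stopped with ethyl acetate, after a 2 h compound preincubation. The host was stably transfected V79 hamster cells carrying human CYP11B1 plus rat P450 reductase. Percent inhibition, from LC-MS/MS or HPLC (260 nm) quantitation of substrate and product, gave the IC50.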

human CYP11B2 = target: T2, human CYP11B2 (Homo sapiens, UniProt P19099); experiment: Inhibition of hCYP11B2 in transfected V79 cells; assay type: cell-based; settings: hamster V79 cells expressing human CYP11B2; substrate 11-deoxycorticosterone 200 nM
T2 construct: expressed in transfected cells
T2 sequence (P19099 25-503): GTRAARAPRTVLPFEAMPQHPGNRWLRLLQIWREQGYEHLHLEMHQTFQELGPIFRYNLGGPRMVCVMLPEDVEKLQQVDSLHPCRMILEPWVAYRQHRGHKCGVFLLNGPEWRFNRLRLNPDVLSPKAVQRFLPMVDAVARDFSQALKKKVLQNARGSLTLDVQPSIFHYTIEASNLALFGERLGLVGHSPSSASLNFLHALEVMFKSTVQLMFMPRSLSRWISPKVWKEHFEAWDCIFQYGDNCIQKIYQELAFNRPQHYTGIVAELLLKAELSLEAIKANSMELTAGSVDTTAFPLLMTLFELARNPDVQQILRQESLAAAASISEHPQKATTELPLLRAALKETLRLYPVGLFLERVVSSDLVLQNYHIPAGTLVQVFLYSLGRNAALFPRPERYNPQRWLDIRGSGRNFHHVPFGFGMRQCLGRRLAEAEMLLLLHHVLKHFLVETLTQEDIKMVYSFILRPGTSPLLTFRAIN
Method in brief: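 The substrate (200 nM, 30 min) was added after a 2 hour compound pre-incubation in lentivirus-transduced V79 cells stably expressing human CYP11B2 plus rat NADPH-P450 reductase.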

IC50 (human CYP11B1) [nM]	IC50 (human CYP11B2) [nM]	Compound
51	1.1	COc1cccc(CCC(=O)N2CCOc3c(-c4ccc(C#N)cc4)cncc32)c1 [O52, 4-(4-(3-(3-Methoxyphenyl)propanoyl)-3,4-dihydro-2H-pyrido[4,3-b][1,4]oxazin-8-yl)benzonitrile]
55	8.2	N#Cc1ccc(-c2cncc3c2OCCN3C(=O)CCc2ccc(C(F)(F)F)cc2)cc1 [O53, 4-(4-(3-(4-(Trifluoromethyl)phenyl)propanoyl)-3,4-dihydro-2H-pyrido[4,3-b][1,4]oxazin-8-yl)benzonitrile]
119	6.9	N#Cc1ccc(-c2cncc3c2OCCN3C(=O)CCc2cccc(C(F)(F)F)c2)cc1 [O54]
114	2.1	N#Cc1ccc(-c2cncc3c2OCCN3C(=O)C2CCN(S(=O)(=O)c3cccc(F)c3)CC2)cc1 [O55, 4-(4-(1-((3-Fluorophenyl)sulfonyl)piperidine-4-carbonyl)-3,4-dihydro-2H-pyrido[4,3-b][1, 4]oxazin-8-yl)benzonitrile]
292	5.1	N#Cc1ccc(-c2cncc3c2OCCN3C(=O)C2CNC2)cc1 [O56, 4-(4-(Azetidine-3-carbonyl)-3,4-dihydro-2H-pyrido[4,3-b][1,4]oxazin-8-yl)benzonitrile]
102	1.6	N#Cc1ccc(-c2cncc3c2OCCN3C(=O)C2CN(C(=O)c3ccc(F)cc3)C2)cc1 [O57, 4-(4-(1-(4-Fluorobenzoyl)azetidine-3-carbonyl)-3,4-dihydro-2H-pyrido[4,3-b][1,4]oxazin-8-yl)benzonitrile]
132	1.9	N#Cc1ccc(-c2cncc3c2OCCN3C(=O)C2CN(C(=O)c3cccc(F)c3)C2)cc1 [O58, 4-(4-(1-(3-Fluorobenzoyl)azetidine-3-carbonyl)-3,4-dihydro-2H-pyrido[4,3-b][1,4]oxazin-8-yl)benzonitrile]
276	2.8	N#Cc1ccc(-c2cncc3c2OCCN3C(=O)CNC(=O)c2ccc(F)cc2)cc1 [O59, N-(2-(8-(4-Cyanophenyl)-2,3-dihydro-4H-pyrido[4,3-b][1,4]oxazin-4-yl)-2-oxoethyl)-4-fluorobenzamide]
2.5	0.6	N#Cc1ccc(-c2cncc3c2OCCN3C(=O)C2CN(S(=O)(=O)c3ccc(F)cc3)C2)cc1 [O60, 4-(4-(1-((4-Fluorophenyl)sulfonyl)azetidine-3-carbonyl)-3,4-dihydro-2H-pyrido[4,3-b][1,4]oxazin-8-yl)benzonitrile]
3.7	0.51	N#Cc1ccc(-c2cncc3c2OCCN3C(=O)C2CN(S(=O)(=O)c3cccc(F)c3)C2)cc1 [O61, 4-(4-(1-((3-Fluorophenyl)sulfonyl)azetidine-3-carbonyl)-3,4-dihydro-2H-pyrido[4,3-b][1,4]oxazin-8-yl)benzonitrile]
178	3.3	N#Cc1ccc(-c2cncc3c2OCCN3C(=O)C2CN(S(=O)(=O)c3ccc([N+](=O)[O-])cc3)C2)cc1 [O62, 4-(4-(1-((4-Nitrophenyl)sulfonyl)azetidine-3-carbonyl)-3,4-dihydro-2H-pyrido[4,3-b][1,4]oxazin-8-yl)benzonitrile]
181	2	N#Cc1ccc(-c2cncc3c2OCCN3C(=O)C2CN(S(=O)(=O)c3cccc([N+](=O)[O-])c3)C2)cc1 [O63, 4-(4-(1-((3-Nitrophenyl)sulfonyl)azetidine-3-carbonyl)-3,4-dihydro-2H-pyrido[4,3-b][1,4]oxazin-8-yl)benzonitrile]
63	0.5	N#Cc1ccc(-c2cncc3c2OCCN3C(=O)C2CN(S(=O)(=O)c3cccs3)C2)cc1 [O64, 4-(4-(1-(Thiophen-2-ylsulfonyl)azetidine-3-carbonyl)-3,4-dihydro-2H-pyrido[4,3-b][1,4]oxazin-8-yl)benzonitrile]
521	2.5	Cc1ccc(S(=O)(=O)N2CC(C(=O)N3CCOc4c(-c5ccc(C#N)cc5)cncc43)C2)cc1 [O65, 4-(4-(1-Tosylazetidine-3-carbonyl)-3,4-dihydro-2H-pyrido[4,3-b][1,4]oxazin-8-yl)benzonitrile]
495	4.5	COc1cccc(S(=O)(=O)N2CC(C(=O)N3CCOc4c(-c5ccc(C#N)cc5)cncc43)C2)c1 [O66, 4-(4-(1-((3-Methoxyphenyl)sulfonyl)azetidine-3-carbonyl)-3,4-dihydro-2H-pyrido[4,3-b][1, 4]oxazin-8-yl)benzonitrile]
496	2.7	COc1ccc(S(=O)(=O)N2CC(C(=O)N3CCOc4c(-c5ccc(C#N)cc5)cncc43)C2)cc1 [O67, 4-(4-(1-((4-Methoxyphenyl)sulfonyl)azetidine-3-carbonyl)-3,4-dihydro-2H-pyrido[4,3-b][1, 4]oxazin-8-yl)benzonitrile]
52	0.7	N#Cc1ccc(-c2cncc3c2OCCN3C(=O)C2CN(S(=O)(=O)c3cccc(C#N)c3)C2)cc1 [O68, 3-((3-(8-(4-Cyanophenyl)-3,4-dihydro-2H-pyrido[4,3-b][1,4]oxazine-4-carbonyl)azetidin-1-yl)sulfonyl)benzonitrile]
57	2.1	N#Cc1ccc(-c2cncc3c2OCCN3C(=O)C2CN(S(=O)(=O)c3ccc(C#N)cc3)C2)cc1 [O69, 4-((3-(8-(4-Cyanophenyl)-3,4-dihydro-2H-pyrido[4,3-b][1,4]oxazine-4-carbonyl)azetidin-1-yl)sulfonyl)benzonitrile]
31.6	1.4	Cc1cccc(S(=O)(=O)N2CC(C(=O)N3CCOc4c(-c5ccc(C#N)cc5)cncc43)C2)c1 [O70, 4-(4-(1-(m-Tolylsulfonyl)azetidine-3-carbonyl)-3,4-dihydro-2H-pyrido[4,3-b][1,4]oxazin-8-yl)benzonitrile]
2170	39	N#Cc1ccc(-c2cncc3c2OCCN3C(=O)C23CC(Nc4cccc(F)c4)(C2)C3)cc1 [O71, 4-(4-(3-((3-Fluorophenyl)amino)bicyclo[1.1.1]pentane-1-carbonyl)-3,4-dihydro-2H-pyrido[4,3-b][1,4]oxazin-8-yl)benzonitrile]
292	3.6	N#Cc1ccc(-c2cncc3c2OCCN3C(=O)c2ccc(Oc3ccc(F)cc3)s2)cc1 [O72, 4-(4-(5-(4-Fluorophenoxy)thiophene-2-carbonyl)-3,4-dihydro-2H-pyrido[4,3-b][1,4]oxazin-8-yl)benzonitrile]
3470	45	N#Cc1ccc(-c2cncc3c2OCCN3C(=O)N2CC3(CN(Cc4cccc(F)c4)C3)C2)cc1 [O73, 4-(4-(6-(3-Fluorobenzyl)-2,6-diazaspiro[3.3]heptane-2-carbonyl)-3,4-dihydro-2H-pyrido[4,3-b][1,4]oxazin-8-yl)benzonitrile]
99	1.3	N#Cc1ccc(-c2cncc3c2OCCN3C(=O)C2CN(S(=O)(=O)c3cccc(C#N)c3)C2)cc1 [O74, 3-((3-(8-(4-Cyanophenyl)-3,4-dihydro-2H-pyrido[4,3-b][1,4]oxazine-4-carbonyl)azetidin-1-yl)sulfonyl)benzonitrile]
89	1.3	N#Cc1ccc(-c2cncc3c2OCCN3C(=O)C2CN(S(=O)(=O)c3ccc(C#N)cc3)C2)cc1 [O75, 4-((3-(8-(4-Cyanophenyl)-3,4-dihydro-2H-pyrido[4,3-b][1,4]oxazine-4-carbonyl)azetidin-1-yl)sulfonyl)benzonitrile]
146	1.6	COc1cccc(C(=O)N2CC(C(=O)N3CCOc4c(-c5ccc(C#N)cc5)cncc43)C2)c1 [O76, 4-(4-(1-(3-Methoxybenzoyl)azetidine-3-carbonyl)-3,4-dihydro-2H-pyrido[4,3-b][1,4]oxazin-8-yl)benzonitrile]
195	2	COc1ccc(C(=O)N2CC(C(=O)N3CCOc4c(-c5ccc(C#N)cc5)cncc43)C2)cc1 [O77, 4-(4-(1-(4-Methoxybenzoyl)azetidine-3-carbonyl)-3,4-dihydro-2H-pyrido[4,3-b][1,4]oxazin-8-yl)benzonitrile]
